Reference: US20260176270A1 (Exelixis, Inc., priority 2022, published 2026)
Where two headings read alike, the source gives them in different places.

Tests used:
PKMYT1 = target: T1, PKMYT1 (Homo sapiens, UniProt Q99640); assay: ADP-Glo PKMYT1 ATP-depletion assay; conditions: 50 nM PKMYT1, 13.3 nM CDK1, read-out: Biochemical IC50
T1 construct: PKMYT1 (93 kD, full length, N-terminal GST tag from Signal Chem); GST (N); purchased Signal Chem
T1 sequence (Q99640 1-499): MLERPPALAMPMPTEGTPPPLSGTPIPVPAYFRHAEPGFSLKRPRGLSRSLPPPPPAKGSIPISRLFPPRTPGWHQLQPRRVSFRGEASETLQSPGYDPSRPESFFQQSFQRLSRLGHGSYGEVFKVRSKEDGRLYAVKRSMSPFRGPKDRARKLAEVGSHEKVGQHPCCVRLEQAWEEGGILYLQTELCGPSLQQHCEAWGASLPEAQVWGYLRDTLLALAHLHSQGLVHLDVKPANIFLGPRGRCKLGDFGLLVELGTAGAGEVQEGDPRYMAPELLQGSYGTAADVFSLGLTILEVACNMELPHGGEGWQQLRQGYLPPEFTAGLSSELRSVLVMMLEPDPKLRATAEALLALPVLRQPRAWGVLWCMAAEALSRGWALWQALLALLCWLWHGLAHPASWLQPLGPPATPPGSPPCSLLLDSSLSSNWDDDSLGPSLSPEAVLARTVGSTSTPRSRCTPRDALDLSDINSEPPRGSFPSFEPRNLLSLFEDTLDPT
How it was run: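 Full-length N-terminal GST-tagged PKMYT1 (50 nM) with GST-CDK1 (13.3 nM) as substrate and 88 µM ATP, in Hepes buffer with MgCl2, MnCl2, DTT and BSA; DMSO <1%. Incubated 120 min at RT. ADP formed was quantified by ADP-Glo luminescence and used to derive biochemical IC50.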

[1] = tested on: phosphorylation of CDK1 at Thr14 in HCC1806 cells; assay: Cell lysate AlphaLISA assay measuring inhibition of phosphorylation of CDK1 Thr14; type: cell-based; conditions: read-out: Cellular IC50
How it was run: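 HCC1806 cells seeded overnight, then treated 4 h at 37 °C, 5% CO2 with compounds in DMSO; washed and lysed, lysates frozen overnight at −80 °C. CDK1 Thr14 phosphorylation read by AlphaLISA SureFire Ultra; data normalized to DMSO (0% inhibition) and 3 μM reference compound to give IC50.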

Row | IC50 (PKMYT1) [nM] | IC50 ([1]; 4 hours) [nM] | IC50 ([1]; Homo sapiens, HCC1806, 4 h) [nM] | SMILES
1 | < 50 | 50 to 500 | – | Cc1c(O)cccc1-c1c(N)c(C(N)=O)cc2ccn(C)c(=O)c12 (atropisomer, axis not shown) [Compound 336]
2 | ≥ 5000 | – | ≥ 5000 | NC(=O)c1nc2cccnc2c(-c2cnc(N)cc2C(F)(F)F)c1N [Compound 183]
3 | 50 to 500 | 500 to 1000 | – | CCn1ccc2cc(C(N)=O)c(N)c(-c3cccc(O)c3C)c2c1=O [Compound 324]
4 | ≥ 5000 | – | ≥ 5000 | Cc1c(O)cccc1-c1cc(C(N)=O)nc2c(C)ccc(C)c12 [Compound 52, 4-(3-Hydroxy-2-methylphenyl)-5,8-dimethylquinoline-2-carboxamide]
5 | < 50 | – | 50 to 500 | Cc1c(O)cccc1-c1c(N)c(C(N)=O)cc2cc(Cl)cnc12 [Compound 146]
6 | ≥ 5000 | – | ≥ 5000 | NC(=O)c1nc2cccnc2c(-c2cccc3occc23)c1N [Compound 250]
7 | 500 to 1000 | 1000 to 5000 | – | Cc1ccc(O)c(C)c1-c1c(N)c(C(N)=O)nc2cccnc12 (single isomer, unassigned) [Compound 10, (M)-3-amino-4-(3-hydroxy-2,6-dimethylphenyl)-1,5-naphthyridine-2-carboxamide]
8 | 1000 to 5000 | ≥ 5000 | – | Cc1c(O)cccc1-c1c(N)c(C(N)=O)cc2c1ncc(=O)n2C (atropisomer, axis not shown) [Compound 283]
9 | 1000 to 5000 | – | ≥ 5000 | NC(=O)c1nc2cccnc2c(-c2cncnc2C(F)(F)F)c1N [Compound 253]
10 | < 50 | – | 50 to 500 | Cc1ccc(O)c(C)c1-c1c(N)c(C(N)=O)cc2nccnc12 [Compound 82, 7-Amino-8-(3-hydroxy-2,6-dimethylphenyl)quinoxaline-6-carboxamide]
11 | ≥ 5000 | ≥ 5000 | – | Cc1ccc2[nH]nc(F)c2c1-c1c(N)c(C(N)=O)cc2nccnc12 (atropisomer, axis not shown) [Compound 299]
12 | 50 to 500 | – | 50 to 500 | Cc1ccc(O)c(C)c1-c1c(N)c(C(N)=O)nc2c(C(F)(F)F)cccc12 [Compound 28, 3-Amino-4-(3-hydroxy-2,6-dimethylphenyl)-8-(trifluoromethyl)quinoline-2-carboxamide]
13 | 50 to 500 | – | 500 to 1000 | Cc1c(O)cccc1-c1c(N)c(C(N)=O)nc2cccc(S(C)(=O)=O)c12 [Compound 319]
14 | 1000 to 5000 | ≥ 5000 | – | Cc1ccc(O)c(C)c1-c1c(N)c(C#N)cc2nccnc12 (atropisomer, axis not shown) [Compound 302]
15 | ≥ 5000 | ≥ 5000 | – | Cc1ccc2[nH]ncc2c1-c1c(N)c(C(N)=O)nc2cccnc12 (single isomer, unassigned) [Compound 8, (M)-3-amino-4-(5-methyl-1H-indazol-4-yl)-1,5-naphthyridine-2-carboxamide]
16 | ≥ 5000 | – | ≥ 5000 | NC(=O)c1cc(-c2cccc3[nH]ncc23)c2nccnc2c1 [Compound 75, 8-(1H-indazol-4-yl)quinoxaline-6-carboxamide]
17 | ≥ 5000 | – | ≥ 5000 | NC(=O)c1cc2nccnc2c(-c2cc(O)ccc2C(F)(F)F)c1N [Compound 215]
18 | 50 to 500 | 500 to 1000 | – | Cc1c(O)cccc1-c1c(N)c(C(N)=O)cc2ncc(C(F)(F)F)nc12 [Compound 115, 7-Amino-8-(3-hydroxy-2-methylphenyl)-2-(trifluoromethyl)quinoxaline-6-carboxamide]
19 | ≥ 5000 | ≥ 5000 | – | Cc1ccc(O)c(C)c1-c1c(N)c(C(N)=O)nc2c(C(F)(F)F)cccc12 (single isomer, unassigned) [Compound 31, (P)-3-amino-4-(3-hydroxy-2,6-dimethylphenyl)-8-(trifluoromethyl) quinoline-2-carboxamide]
20 | 500 to 1000 | ≥ 5000 | – | Cc1ccc(O)c(C)c1-c1c(N)c(C(N)=O)cc2cccnc12 (single isomer, unassigned) [Compound 65, (M)-7-Amino-8-(3-hydroxy-2,6-dimethyl-phenyl)quinoline-6-carboxamide]
21 | 50 to 500 | 1000 to 5000 | – | Cc1ccc(O)c(C)c1-c1c(N)c(C(N)=O)nc2ccccc12 (atropisomer, axis not shown; (M)) [Compound 44, (M)-3-Amino-4-(3-hydroxy-2,6-dimethylphenyl)quinoline-2-carboxamide]
22 | 1000 to 5000 | – | ≥ 5000 | NC(=O)c1cc2nccnc2c(-c2cc(O)cnc2Cl)c1N [Compound 122, 7-Amino-8-(2-chloro-5-hydroxy-3-pyridyl)quinoxaline-6-carboxamide]

Row | IC50 (PKMYT1) [nM] | IC50 ([1]; 4 hours) [nM] | IC50 ([1]; Homo sapiens, HCC1806, 4 h) [nM] | SMILES
23 | < 50 | – | 50 to 500 | Cc1c(O)cccc1-c1c(N)c(C(N)=O)cc2cccnc12 [Compound 61, 7-Amino-8-(3-hydroxy-2-methylphenyl)quinoline-6-carboxamide]
24 | ≥ 5000 | ≥ 5000 | – | Cc1c(O)cccc1-c1c(N)c(C(N)=O)cc2nc(C(F)(F)F)c(O)nc12 (atropisomer, axis not shown) [Compound 136]
25 | ≥ 5000 | – | ≥ 5000 | Cc1cnncc1-c1c(N)c(C(N)=O)nc2cccnc12 [Compound 257]
26 | 1000 to 5000 | – | ≥ 5000 | Cc1ncc(O)c(C)c1-c1c(N)c(C(N)=O)nc2cccnc12 [Compound 256]
27 | 50 to 500 | < 50 | – | Cc1ccc(O)c(C)c1-c1c(N)c(C(N)=O)nc2c(C(F)(F)F)cccc12 (single isomer, unassigned) [Compound 30, (M)-3-Amino-4-(3-hydroxy-2,6-dimethylphenyl)-8-(trifluoromethyl) quinoline-2-carboxamide]
28 | 50 to 500 | – | 50 to 500 | Cc1nc2cc(C(N)=O)c(N)c(-c3cccc(O)c3C)c2nc1C [Compound 91, 7-Amino-8-(3-hydroxy-2-methylphenyl)-2,3-dimethylquinoxaline-6-carboxamide]
29 | < 50 | 50 to 500 | – | COc1ccc2nc(C(N)=O)c(N)c(-c3cccc(O)c3C)c2n1 [Compound 157]
30 | < 50 | 50 to 500 | – | COc1ccc2nc(C(N)=O)c(N)c(-c3cccc(O)c3C)c2n1 (atropisomer, axis not shown) [Compound 174]
31 | ≥ 5000 | – | ≥ 5000 | Cc1n[nH]c2cccc(-c3cc(C(N)=O)cc4nccnc34)c12 [Compound 72, 8-(3-Methyl-1H-indazol-4-yl)quinoxaline-6-carboxamide]
32 | ≥ 5000 | ≥ 5000 | – | Cc1c(-c2c(N)c(C(N)=O)cc3nccnc23)ccnc1O [Compound 110, 7-Amino-8-(2-hydroxy-3-methylpyridin-4-yl)quinoxaline-6-carboxamide]
33 | 50 to 500 | – | ≥ 5000 | COc1cncc(-c2c(N)c(C(N)=O)cc3nccnc23)c1C [Compound 107, 7-amino-8-(5-methoxy-4-methylpyridin-3-yl)quinoxaline-6-carboxamide]
34 | ≥ 5000 | – | ≥ 5000 | Cc1cc(CO)ccc1-c1c(N)c(C(N)=O)nc2cccnc12 [Compound 221]
35 | < 50 | 50 to 500 | – | Cc1c(O)cccc1-c1c(N)c(C(N)=O)cc2cc(Cl)cnc12 (atropisomer, axis not shown) [Compound 179]
36 | 50 to 500 | 1000 to 5000 | – | Cc1c(O)cccc1-c1c(N)c(C(N)=O)cc2nc(C(F)(F)F)c(O)nc12 [Compound 133]
37 | ≥ 5000 | – | ≥ 5000 | Cc1c(CO)cccc1-c1c(N)c(C(N)=O)nc2cccnc12 [Compound 249]
38 | < 50 | – | < 50 | Cc1c(O)cccc1-c1c(N)c(C(N)=O)nc2cccc(C#N)c12 [Compound 129, 3-Amino-5-cyano-4-(3-hydroxy-2-methylphenyl)quinoline-2-carboxamide]
39 | 1000 to 5000 | – | ≥ 5000 | NC(=O)c1cc2nccnc2c(-c2cccn3cncc23)c1N [Compound 216]
40 | 1000 to 5000 | – | ≥ 5000 | Cc1cc2nc(N)sc2cc1-c1c(N)c(C(N)=O)cc2nccnc12 [Compound 311]
41 | ≥ 5000 | – | ≥ 5000 | NC(=O)c1cc2nccnc2c(-c2ccc3ncoc3c2)c1N [Compound 198]
42 | 500 to 1000 | – | 1000 to 5000 | Cc1ccc(O)c(C)c1-c1c(N)c(C(N)=O)nc2cc(Cl)ccc12 [Compound 42, 3-Amino-7-chloro-4-(3-hydroxy-2,6-dimethylphenyl)quinoline-2-carboxamide]
43 | < 50 | – | 50 to 500 | Cc1c(-c2c(N)c(C(N)=O)cc3nccnc23)ccc(F)c1O [Compound 227]
44 | 1000 to 5000 | ≥ 5000 | – | Cc1ccc(O)cc1-c1c(N)c(C(N)=O)cc2nccnc12 (atropisomer, axis not shown; (P)) [Compound 117, (P)-7-amino-8-(5-hydroxy-2-methylphenyl)quinoxaline-6-carboxamide]
